# From ChEMBL document CHEMBL1201862, “PubChem BioAssay data set” (2004)
#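 Cells were grown in 96-well plates and exposed to each compound for 48 hours at five concentrations; endpoints were interpolated linearly between bracketing concentrations, or set to the highest concentration if not reached. Abbreviation: GI50, concentration required for 50% inhibition of growth.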 Calls of active or inactive are those of the source. No stated cut-off is given here; in the data, active = GI50 up to about 1.1 µM and inactive = higher.
# Tests used:
# Assay in all cases: DTP human tumour cell line panel, 48 h
# SK-MEL-5 = test system: SK-MEL-5
# SK-MEL-2 = test system: SK-MEL-2
# U-251 = test system: U-251
# TK-10 = test system: TK-10
# SW-620 = test system: SW-620
# OVCAR-4 = test system: OVCAR-4
# DU-145 = test system: DU-145
# T47D = test system: T47D
# SNB-75 = test system: SNB-75
# OVCAR-8 = test system: OVCAR-8
# MDA-N = test system: MDA-N
# NCI-H23 = test system: NCI-H23
# MCF7 = test system: MCF7
# RPMI-8226 = test system: RPMI-8226
# OVCAR-3 = test system: OVCAR-3
# Hs-578T = test system: Hs-578T
# LOX IMVI = test system: LOX IMVI
# K562 = test system: K562
# EKVX = test system: EKVX
SMILES,GI50 (SK-MEL-5),GI50 (SK-MEL-2),GI50 (U-251),GI50 (TK-10),GI50 (SW-620),GI50 (OVCAR-4),GI50 (DU-145),GI50 (T47D),GI50 (SNB-75),GI50 (OVCAR-8),GI50 (MDA-N),GI50 (NCI-H23),GI50 (MCF7),GI50 (RPMI-8226),GI50 (OVCAR-3),GI50 (Hs-578T),GI50 (LOX IMVI),GI50 (K562),GI50 (EKVX)
CN(C)CCNC(=O)c1ccc(NC(=O)c2nc([N+](=O)[O-])cn2C)cc1,> 100 µM (inactive),> 100 µM (inactive),> 100 µM (inactive),> 100 µM (inactive),> 100 µM (inactive),> 100 µM (inactive),> 100 µM (inactive),> 100 µM (inactive),> 100 µM (inactive),> 100 µM (inactive),> 100 µM (inactive),> 100 µM (inactive),> 100 µM (inactive),> 100 µM (inactive),> 100 µM (inactive),> 100 µM (inactive),> 100 µM (inactive),> 100 µM (inactive),
C#CCOC(=O)C(N)CSSCC(N)C(=O)O (stereo not given),> 100 µM (inactive),> 100 µM (inactive),> 100 µM (inactive),> 100 µM (inactive),> 100 µM (inactive),> 100 µM (inactive),> 100 µM (inactive),> 100 µM (inactive),> 100 µM (inactive),> 100 µM (inactive),> 100 µM (inactive),> 100 µM (inactive),> 100 µM (inactive),> 100 µM (inactive),,> 100 µM (inactive),65.9 µM (inactive),,> 100 µM (inactive)
NC(=O)c1sc2nc3ccccc3n2c1N,> 100 µM (inactive),30.2 µM (inactive),28.2 µM (inactive),42.7 µM (inactive),> 100 µM (inactive),> 100 µM (inactive),84.9 µM (inactive),> 100 µM (inactive),29.4 µM (inactive),65.8 µM (inactive),> 100 µM (inactive),17.4 µM (inactive),> 100 µM (inactive),> 100 µM (inactive),> 100 µM (inactive),46 µM (inactive),36.1 µM (inactive),,67.5 µM (inactive)
Nc1c(Cl)ncnc1N[C@@H]1C[C@H]1CO,> 100 µM (inactive),> 100 µM (inactive),> 100 µM (inactive),> 100 µM (inactive),> 100 µM (inactive),> 100 µM (inactive),> 100 µM (inactive),> 100 µM (inactive),0.494 µM (active),> 100 µM (inactive),> 100 µM (inactive),> 100 µM (inactive),> 100 µM (inactive),,> 100 µM (inactive),> 100 µM (inactive),> 100 µM (inactive),> 100 µM (inactive),> 100 µM (inactive)
CSc1[nH]cnc1C(N)=S,> 100 µM (inactive),> 100 µM (inactive),> 100 µM (inactive),> 100 µM (inactive),> 100 µM (inactive),,> 100 µM (inactive),> 100 µM (inactive),> 100 µM (inactive),> 100 µM (inactive),> 100 µM (inactive),> 100 µM (inactive),> 100 µM (inactive),> 100 µM (inactive),> 100 µM (inactive),> 100 µM (inactive),> 100 µM (inactive),,> 100 µM (inactive)
O=S(=O)(O)c1ccc2c(/N=N/c3ccccc3)c(O)c(S(=O)(=O)O)cc2c1,> 100 µM (inactive),> 100 µM (inactive),> 100 µM (inactive),> 100 µM (inactive),> 100 µM (inactive),> 100 µM (inactive),> 100 µM (inactive),> 100 µM (inactive),> 100 µM (inactive),> 100 µM (inactive),> 100 µM (inactive),> 100 µM (inactive),> 100 µM (inactive),< 0.01 µM (active),> 100 µM (inactive),> 100 µM (inactive),,> 100 µM (inactive),67 µM (inactive)
COc1ccc(-c2oc3ccc(C)cc3c(=O)c2O)cc1,> 100 µM (inactive),> 100 µM (inactive),28.6 µM (inactive),32.1 µM (inactive),> 100 µM (inactive),57.7 µM (inactive),> 100 µM (inactive),> 100 µM (inactive),76.7 µM (inactive),23.1 µM (inactive),> 100 µM (inactive),> 100 µM (inactive),> 100 µM (inactive),9.95 µM (inactive),> 100 µM (inactive),> 100 µM (inactive),> 100 µM (inactive),,> 100 µM (inactive)
CN1CCN(CC(=O)Nc2cccc3ccccc23)CC1,> 100 µM (inactive),> 100 µM (inactive),> 100 µM (inactive),> 100 µM (inactive),> 100 µM (inactive),> 100 µM (inactive),> 100 µM (inactive),> 100 µM (inactive),,> 100 µM (inactive),> 100 µM (inactive),> 100 µM (inactive),> 100 µM (inactive),> 100 µM (inactive),> 100 µM (inactive),> 100 µM (inactive),> 100 µM (inactive),> 100 µM (inactive),> 100 µM (inactive)
CCOC(=O)c1cc(C(O)P2(=O)N(CC(C)(C)C)[C@@H]3CCCC[C@H]3N2CC(C)(C)C)cn1C(=O)OC(C)(C)C (stereo not given in full),17.5 µM (inactive),17.7 µM (inactive),15.9 µM (inactive),22.6 µM (inactive),16.2 µM (inactive),13.9 µM (inactive),16.6 µM (inactive),15.1 µM (inactive),,24.8 µM (inactive),14.8 µM (inactive),24.3 µM (inactive),18.7 µM (inactive),12.7 µM (inactive),12.3 µM (inactive),16.9 µM (inactive),17.6 µM (inactive),20.1 µM (inactive),20.5 µM (inactive)
O=C1C=C(O)C(=O)c2c(O)ccc(O)c21,> 100 µM (inactive),> 100 µM (inactive),> 100 µM (inactive),> 100 µM (inactive),> 100 µM (inactive),> 100 µM (inactive),> 100 µM (inactive),> 100 µM (inactive),> 100 µM (inactive),> 100 µM (inactive),> 100 µM (inactive),> 100 µM (inactive),> 100 µM (inactive),> 100 µM (inactive),> 100 µM (inactive),> 100 µM (inactive),> 100 µM (inactive),> 100 µM (inactive),
O=c1c2cc(Cl)cc(Cl)c2oc2nc3n(c(=O)c12)CCCS3,> 100 µM (inactive),> 100 µM (inactive),> 100 µM (inactive),> 100 µM (inactive),> 100 µM (inactive),> 100 µM (inactive),> 100 µM (inactive),57.1 µM (inactive),> 100 µM (inactive),,> 100 µM (inactive),> 100 µM (inactive),70.5 µM (inactive),> 100 µM (inactive),95.9 µM (inactive),> 100 µM (inactive),,76 µM (inactive),> 100 µM (inactive)
